In patent US20200048611A1, “ENGINEERED PLATFORM FOR CONNECTED MICROPATTERNED CARDIAC TISSUES” (Wisconsin Alumni Research Foundation, priority 2018, published 2020):

Tested on: patterned hPSC-CMs
Test: beta-adrenergic stimulation of micropatterned hPSC-CMs with isoproterenol (contraction, digital image correlation)
Assay type: cell-based, human
Conditions: patterned CMs on 10 kPa PDMS, 1 μM isoproterenol
Text: In this Example, cardiomyocytes were differentiated from the 19-9-11 iPSC line and purified using lactate media. 10 kPa PDMS substrates mimicking the elasticity of the healthy myocardium were made by blending together commercially available Sylgard 184 and 527. […] Statistical analyses were done using one-way ANOVA with post hoc Tukey test.

## CC(C)NCC(O)c1ccc(O)c(O)c1 (centres unmarked) [isoproterenol]
  rate of contraction: increase in the rate of contraction
Versus baseline normal contraction
  amplitude of contraction (x-displacement): amplitude of contraction also increased from baseline
